Laboratory results: patent US6355799B1, “Substituted benzene compounds, process for their preparation, and herbicidal and defoliant compositions containing them” (ISK Americas Incorporated, priority 1997, dated 2002)

Key:
Format in all cases: in vivo
[1] = test system: ivyleaf morningglory (Ipomoea hederacea, IPOHE); test: Pre-emerge test, greenhouse herbicide activity screening; settings: pre-emerge, 14 days after application, rating scale 0-100
Method in brief: (§1)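 Compounds in acetone were track-sprayed at 15-1000 g ai/ha (187 l/ha) on sandy loam pots: pre-emerge one day after seeding, post-emerge at 2-3 leaf stage with 0.25% v/v non-ionic surfactant. Phytotoxicity was rated 14 days later on a 0 (no damage) to 100 (complete death) scale.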

[2] = test system: barnyardgrass (Echinochloa crus-galli, ECHCG); test: as above; settings: pre-emerge, 14 days after application, rating scale 0-100
Method in brief: as §1

[3] = test system: large crabgrass (Digitaria sanguinalis, DIGSA); test: as above; settings: pre-emerge, 14 days after application, rating scale 0-100
Method in brief: as §1

[4] = test system: johnsongrass (Sorghum halepense, SORHA); test: as above; settings: pre-emerge, 14 days after application, rating scale 0-100
Method in brief: as §1

[5] = test system: green foxtail (Setaria viridis, SETVI); test: as above; settings: pre-emerge, 14 days after application, rating scale 0-100
Method in brief: as §1

[6] = test system: sicklepod (Cassia obtusifolia, CASOB); test: as above; settings: pre-emerge, 14 days after application, rating scale 0-100
Method in brief: as §1

[7] = test system: lambsquarters (Chenopodium album, CHEAL); test: as above; settings: pre-emerge, 14 days after application, rating scale 0-100
Method in brief: as §1

[8] = test system: velvetleaf (Abutilon theophrasti, ABUTH); test: as above; settings: pre-emerge, 14 days after application, rating scale 0-100
Method in brief: as §1

[9] = test system: cocklebur (Xanthium strumarium, XANST); test: as above; settings: 14 days after application, rating scale 0-100
[10] = test system: redroot pigweed (Amaranthus retroflexus, AMARE); test: as above; settings: pre-emerge, 14 days after application, rating scale 0-100
Method in brief: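 Herbicidal damage is scored 0 (none) to 100 (complete plant death) two weeks after a simulated field spray. Rates span 15–1000 g ai/ha, delivered in acetone at 187 l/ha. For post-emergence treatments, plants have 2–3 leaves and the spray carries 0.25% v/v non-ionic surfactant.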

[11] = test system: field corn (Zea mays L., var. Dekalb 535, CORN); test: Pre-emerge test, crop safety; settings: pre-emerge, 14 days after application, rating scale 0-100
Method in brief: (§2)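 Sandy loam pots; pre-emerge: sown 1 d pre-spray, surface-watered after, then bottom-watered. Post-emerge: sown 8–21 d before, 2–3 leaf stage, + 0.25% v/v NIS, bottom-watered. Acetone, 187 l/ha track spray, 15–1000 g ai/ha. 0–100 injury score, day 14.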

[12] = test system: upland rice (Oryza sp., var. Tebonnet, RICE); test: Pre-emerge test, crop safety; settings: pre-emerge, 14 days after application, rating scale 0-100
Method in brief: as §2

O=c1cc(C(F)(F)F)[nH]c(=O)n1-c1c(Cl)cc(C(F)(F)F)cc1Cl [compound 2, reference compound]
50: phytotoxicity rating CASOB ([6]; 250 g ai/ha) | phytotoxicity rating CHEAL ([7]; 250 g ai/ha) | phytotoxicity rating ABUTH ([8]; 250 g ai/ha)
30: phytotoxicity rating CASOB ([6]; 125 g ai/ha) | phytotoxicity rating CHEAL ([7]; 125 g ai/ha)
15: phytotoxicity rating RICE ([12]; 250 g ai/ha)
60: phytotoxicity rating XANST ([9]; 250 g ai/ha)
0: phytotoxicity rating IPOHE ([1]; 3.9 g ai/ha) | phytotoxicity rating IPOHE ([1]; 7.8 g ai/ha) | phytotoxicity rating IPOHE ([1]; 15.6 g ai/ha) | phytotoxicity rating IPOHE ([1]; 31.3 g ai/ha) | phytotoxicity rating IPOHE ([1]; 62.5 g ai/ha) | phytotoxicity rating IPOHE ([1]; 125 g ai/ha) | phytotoxicity rating IPOHE ([1]; 250 g ai/ha) | phytotoxicity rating ECHCG ([2]; 3.9 g ai/ha) | phytotoxicity rating ECHCG ([2]; 7.8 g ai/ha) | phytotoxicity rating ECHCG ([2]; 15.6 g ai/ha) | phytotoxicity rating ECHCG ([2]; 31.3 g ai/ha) | phytotoxicity rating ECHCG ([2]; 62.5 g ai/ha) | phytotoxicity rating ECHCG ([2]; 125 g ai/ha) | phytotoxicity rating ECHCG ([2]; 250 g ai/ha) | phytotoxicity rating DIGSA ([3]; 3.9 g ai/ha) | phytotoxicity rating DIGSA ([3]; 7.8 g ai/ha) | phytotoxicity rating DIGSA ([3]; 15.6 g ai/ha) | phytotoxicity rating DIGSA ([3]; 31.3 g ai/ha) | phytotoxicity rating DIGSA ([3]; 62.5 g ai/ha) | phytotoxicity rating DIGSA ([3]; 125 g ai/ha) | phytotoxicity rating DIGSA ([3]; 250 g ai/ha) | phytotoxicity rating SORHA ([4]; 3.9 g ai/ha) | phytotoxicity rating SORHA ([4]; 7.8 g ai/ha) | phytotoxicity rating SORHA ([4]; 15.6 g ai/ha) | phytotoxicity rating SORHA ([4]; 31.3 g ai/ha) | phytotoxicity rating SORHA ([4]; 62.5 g ai/ha) | phytotoxicity rating SORHA ([4]; 125 g ai/ha) | phytotoxicity rating SORHA ([4]; 250 g ai/ha) | phytotoxicity rating SETVI ([5]; 3.9 g ai/ha) | phytotoxicity rating SETVI ([5]; 7.8 g ai/ha) | phytotoxicity rating SETVI ([5]; 15.6 g ai/ha) | phytotoxicity rating SETVI ([5]; 31.3 g ai/ha) | phytotoxicity rating SETVI ([5]; 62.5 g ai/ha) | phytotoxicity rating SETVI ([5]; 125 g ai/ha) | phytotoxicity rating SETVI ([5]; 250 g ai/ha) | phytotoxicity rating CASOB ([6]; 3.9 g ai/ha) | phytotoxicity rating CASOB ([6]; 7.8 g ai/ha) | phytotoxicity rating CASOB ([6]; 15.6 g ai/ha) | phytotoxicity rating CASOB ([6]; 31.3 g ai/ha) | phytotoxicity rating CASOB ([6]; 62.5 g ai/ha) | phytotoxicity rating CHEAL ([7]; 3.9 g ai/ha) | phytotoxicity rating CHEAL ([7]; 7.8 g ai/ha) | phytotoxicity rating CHEAL ([7]; 15.6 g ai/ha) | phytotoxicity rating CHEAL ([7]; 31.3 g ai/ha) | phytotoxicity rating CHEAL ([7]; 62.5 g ai/ha) | phytotoxicity rating ABUTH ([8]; 3.9 g ai/ha) | phytotoxicity rating ABUTH ([8]; 7.8 g ai/ha) | phytotoxicity rating ABUTH ([8]; 15.6 g ai/ha) | phytotoxicity rating ABUTH ([8]; 31.3 g ai/ha) | phytotoxicity rating ABUTH ([8]; 62.5 g ai/ha) | phytotoxicity rating ABUTH ([8]; 125 g ai/ha) | phytotoxicity rating XANST ([9]; 3.9 g ai/ha) | phytotoxicity rating XANST ([9]; 7.8 g ai/ha) | phytotoxicity rating XANST ([9]; 15.6 g ai/ha) | phytotoxicity rating XANST ([9]; 31.3 g ai/ha) | phytotoxicity rating XANST ([9]; 62.5 g ai/ha) | phytotoxicity rating XANST ([9]; 125 g ai/ha) | phytotoxicity rating AMARE ([10]; 3.9 g ai/ha) | phytotoxicity rating AMARE ([10]; 7.8 g ai/ha) | phytotoxicity rating AMARE ([10]; 15.6 g ai/ha) | phytotoxicity rating AMARE ([10]; 31.3 g ai/ha) | phytotoxicity rating AMARE ([10]; 62.5 g ai/ha) | phytotoxicity rating AMARE ([10]; 125 g ai/ha) | phytotoxicity rating AMARE ([10]; 250 g ai/ha) | phytotoxicity rating MAIZE ([11]; 3.9 g ai/ha) | phytotoxicity rating MAIZE ([11]; 7.8 g ai/ha) | phytotoxicity rating MAIZE ([11]; 15.6 g ai/ha) | phytotoxicity rating MAIZE ([11]; 31.3 g ai/ha) | phytotoxicity rating MAIZE ([11]; 62.5 g ai/ha) | phytotoxicity rating MAIZE ([11]; 125 g ai/ha) | phytotoxicity rating MAIZE ([11]; 250 g ai/ha) | phytotoxicity rating RICE ([12]; 3.9 g ai/ha) | phytotoxicity rating RICE ([12]; 7.8 g ai/ha) | phytotoxicity rating RICE ([12]; 15.6 g ai/ha) | phytotoxicity rating RICE ([12]; 31.3 g ai/ha) | phytotoxicity rating RICE ([12]; 62.5 g ai/ha) | phytotoxicity rating RICE ([12]; 125 g ai/ha)
